Reference: patent publication US20120263791A1, “FOMULATION COMPRISING 1 H-QUINAZOLINE-2, 4-DIONE AMPA RECEPTOR ANTAGONISTS, IN THE FORM OF IMMEDIATE RELEASE TABLETS AND PREPARATION THEREOF” (NOVARTIS AG, priority 2009, published 2012)

Assay: PK parameters after a single dose of three 50 mg tablets to a sample population (12)
Format: in vivo
Conditions: human, po, 150 mg, plasma, three 50 mg tablets of Example 4 in a single dose
Description: A 50 mg tablet as specified in Example 4 was prepared using the procedure described in Example 4. Three tablets were administered in a single dose to a sample population (12) and the PK parameters measured. These parameters are provided below.
Primary PK variables were […] and analyzed using a mixed effects linear model. Sequence, Period and Treatment factors were included in the model as fixed effects and subject as a random effect. 90% confidence intervals for PK variables (pharmacokinetic analysis population).
Drug Substance: Compound (iii); Matrix: Plasma; Analyte: Compound (iii).

AUC(0-inf) (read-out: AUCinf, adjusted geometric mean): 16800 ng·h/mL | AUC(0-t) (read-out: AUClast, adjusted geometric mean): 16800 ng·h/mL | Cmax (read-out: Cmax, adjusted geometric mean): 2910 ng/mL
SMILES: CC(C)c1cc2[nH]c(=O)n(NS(C)(=O)=O)c(=O)c2cc1-c1ccnn1C [Compound (iii)]
